Experimental data: US7264925B2, “Method for analysis of oligonucleotide analogs” (AVI BioPharma, Inc., priority 2000, dated 2007)
“And” between values parts separate entries of the source, which are not always exact repeats. Equal entries are not always repeated.

Assay: Quantitation of PMO in plasma of cynomolgus monkeys following i.v. injection (anion exchange HPLC of the duplex with 5'-fluorescein labeled DNA)
Type: in vivo
Experimental: • HPLC conditions: • Column: Dionex DNA Pac™ PA-100 (250×4 mm, 15μ particle size) • Mobile Phases: A: 0.025 M Tris (pH 9); B: 0.025 M Tris (pH 9)/1 M NaCl • Gradient: A:B:C 90/10 @ 0 min to 55/45 @ 20 min • Flow Rate: 1.5 mL/min • Wavelength: 494 nm excitation; 518 detection • Temperature: 25° C.
Cynomolgus monkeys were injected i.v. with the analyte PMO, and blood samples were taken at various time intervals, as shown in Table 2. In a typical analysis, 200 μL of plasma was combined with a known amount (e.g. 500 ng) of internal standard (FIG. 11) in 10 μL of 0.025 M Tris buffer, pH 8-9. Methanol (200.0 μL) was added, and the sample was mixed using a vortex mixer. The precipitate was removed with the aid of high speed centrifugation. The supernatant was removed and the pellet washed with 100 μL Tris buffer; the wash was added to the supernatant. The mixture was heated at 70° C. for a period of 10 minutes, and the sample was once again subjected to high speed centrifugation. The supernatant was transferred and lyophilized to dryness. The dry material was reconstituted with a 100.0 μL aliquot of DNA (5′-fluorescein labeled) in 0.025 M Tris (pH 8-9) and transferred to an autosampler vial, and the entire sample was injected onto the HPLC column and analyzed.
A calibration was performed by analysis of plasma standards containing from 250 to 20,000 ng of AVI-4126. The data were plotted as the ratio of analyte to internal standard signal intensities versus the ratio of analyte to internal standard concentrations.
The level detected in this assay was 10.0 ng analyte, which corresponded to 50 ng/mL. The sensitivity of this method thus far exceeds the detection and quantitation limits of UV based methods.

PMO: PMO (phosphorodiamidate morpholino oligomer) having the sequence ACGTTGAGGGGCATCGTCGC (SEQ ID NO: 1), antisense to human c-myc (antisense ACGTTGAGGGGCATCGTCGC; all phosphorodiamidate morpholino (PMO))
level detected in representative assay (FIG. 12), amount of analyte (200 μL plasma sample, representative assay, time point not stated): 10.0 ng | level detected in representative assay (FIG. 12), plasma concentration (corresponds to 10.0 ng analyte in plasma sample, time point not stated): 50 ng/mL | Quantitation of PMO in plasma, 10 min (cynomolgus monkey plasma, i.v. injection, 10 min, one value per monkey ID): 92.505 µg/mL and 105.37 µg/mL and 105.685 µg/mL | Quantitation of PMO in plasma, 2 h (cynomolgus monkey plasma, i.v. injection, 2 h, one value per monkey ID): 49.895 µg/mL and 68.025 µg/mL and 49.755 µg/mL | Quantitation of PMO in plasma, 6 hr (cynomolgus monkey plasma, i.v. injection, 6 hr, one value per monkey ID): 29.81 µg/mL and 45.33 µg/mL and 32.015 µg/mL | Quantitation of PMO in plasma, 24 hr (cynomolgus monkey plasma, i.v. injection, 24 hr, one value per monkey ID): 17.575 µg/mL and 14.895 µg/mL and 12.645 µg/mL
